Source: the supplement of paper PMC10307832

Key:
Assay in all cases: relative viability (nuclei count vs DMSO), 5 days (fraction); higher = more cells survive
Serdemetan + Palbociclib = compound: c1ccc2c(CCNc3ccc(Nc4ccncc4)cc3)c[nH]c2c1 [Serdemetan] + CC(=O)c1c(C)c2cnc(Nc3ccc(N4CCNCC4)cn3)nc2n(C2CCCC2)c1=O [Palbociclib] (partner 0.5 µM)
Outline: (§1)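 Lung cancer cell lines, seeded in 1536-well plates, were treated the following day by pin tool with a single drug or with five library-drug doses (not always all listed) in √10 steps on top of a fixed anchor-drug dose. Cells were fixed and nuclei stained in one step after 5 days, and nuclei were counted. Relative viability is the nuclei count for treated wells divided by that for vehicle wells, reported as medians of duplicate plates.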

Serdemetan + Phenformin = compound: c1ccc2c(CCNc3ccc(Nc4ccncc4)cc3)c[nH]c2c1 [Serdemetan] + N=C(N)NC(=N)NCCc1ccccc1 [Phenformin] (partner 250 µM)
Outline: as §1

Serdemetan + Alpelisib = compound: c1ccc2c(CCNc3ccc(Nc4ccncc4)cc3)c[nH]c2c1 [Serdemetan] + Cc1nc(NC(=O)N2CCC[C@H]2C(N)=O)sc1-c1ccnc(C(C)(C)C(F)(F)F)c1 [Alpelisib] (partner 2 µM)
Outline: as §1

Serdemetan + Tozasertib = compound: c1ccc2c(CCNc3ccc(Nc4ccncc4)cc3)c[nH]c2c1 [Serdemetan] + Cc1cc(Nc2cc(N3CCN(C)CC3)nc(Sc3ccc(NC(=O)C4CC4)cc3)n2)n[nH]1 [Tozasertib] (partner 0.1 µM)
Outline: as §1

NCI-H1355 gave a relative viability (Serdemetan + Palbociclib; first compound 0.04 µM) of 0.381, a relative viability (Serdemetan + Palbociclib; first compound 0.1265 µM) of 0.381 and a relative viability (Serdemetan + Palbociclib; first compound 0.4 µM) of 0.366. The relative viability (Serdemetan + Palbociclib; first compound 1.265 µM) was 0.371, the relative viability (Serdemetan + Palbociclib; first compound 4 µM) was 0.366 and the relative viability (Serdemetan + Phenformin; first compound 0.04 µM) was 0.447. The relative viability (Serdemetan + Phenformin; first compound 0.1265 µM) was 0.444, the relative viability (Serdemetan + Phenformin; first compound 0.4 µM) was 0.466 and the relative viability (Serdemetan + Phenformin; first compound 1.265 µM) was 0.332. For the same cell line, the relative viability (Serdemetan + Phenformin; first compound 4 µM) was 0.432, the relative viability (Serdemetan + Alpelisib; first compound 0.04 µM) was 0.952 and the relative viability (Serdemetan + Alpelisib; first compound 0.1265 µM) was 0.786. The relative viability (Serdemetan + Alpelisib; first compound 0.4 µM) was 0.752, the relative viability (Serdemetan + Alpelisib; first compound 1.265 µM) was 0.875 and the relative viability (Serdemetan + Alpelisib; first compound 4 µM) was 0.774. It also gave a relative viability (Serdemetan + Tozasertib; first compound 0.04 µM) of 0.489, a relative viability (Serdemetan + Tozasertib; first compound 0.1265 µM) of 0.508 and a relative viability (Serdemetan + Tozasertib; first compound 0.4 µM) of 0.443. For the same cell line, the relative viability (Serdemetan + Tozasertib; first compound 1.265 µM) was 0.381 and the relative viability (Serdemetan + Tozasertib; first compound 4 µM) was 0.385.

In the case of NCI-H1395, the relative viability (Serdemetan + Palbociclib; first compound 0.04 µM) is reported as 0.605, the relative viability (Serdemetan + Palbociclib; first compound 0.1265 µM) is reported as 0.643 and the relative viability (Serdemetan + Palbociclib; first compound 0.4 µM) is reported as 0.626. For the same cell line, the relative viability (Serdemetan + Palbociclib; first compound 1.265 µM) was 0.555, the relative viability (Serdemetan + Palbociclib; first compound 4 µM) was 0.436 and the relative viability (Serdemetan + Phenformin; first compound 0.04 µM) was 0.448. It also gave a relative viability (Serdemetan + Phenformin; first compound 0.1265 µM) of 0.448, a relative viability (Serdemetan + Phenformin; first compound 0.4 µM) of 0.471 and a relative viability (Serdemetan + Phenformin; first compound 1.265 µM) of 0.388. It also gave a relative viability (Serdemetan + Phenformin; first compound 4 µM) of 0.332, a relative viability (Serdemetan + Alpelisib; first compound 0.04 µM) of 0.863 and a relative viability (Serdemetan + Alpelisib; first compound 0.1265 µM) of 0.903. The relative viability (Serdemetan + Alpelisib; first compound 0.4 µM) was 1.12, the relative viability (Serdemetan + Alpelisib; first compound 1.265 µM) was 0.912 and the relative viability (Serdemetan + Alpelisib; first compound 4 µM) was 0.564. It also gave a relative viability (Serdemetan + Tozasertib; first compound 0.04 µM) of 0.736, a relative viability (Serdemetan + Tozasertib; first compound 0.1265 µM) of 0.742 and a relative viability (Serdemetan + Tozasertib; first compound 0.4 µM) of 0.838. It also gave a relative viability (Serdemetan + Tozasertib; first compound 1.265 µM) of 0.751 and a relative viability (Serdemetan + Tozasertib; first compound 4 µM) of 0.513.

With NCI-H1437 the relative viability (Serdemetan + Palbociclib; first compound 0.04 µM) was 0.289, the relative viability (Serdemetan + Palbociclib; first compound 0.1265 µM) was 0.32 and the relative viability (Serdemetan + Palbociclib; first compound 0.4 µM) was 0.334. For the same cell line, the relative viability (Serdemetan + Palbociclib; first compound 1.265 µM) was 0.359, the relative viability (Serdemetan + Palbociclib; first compound 4 µM) was 0.315 and the relative viability (Serdemetan + Phenformin; first compound 0.04 µM) was 0.314. For the same cell line, the relative viability (Serdemetan + Phenformin; first compound 0.1265 µM) was 0.32, the relative viability (Serdemetan + Phenformin; first compound 0.4 µM) was 0.315 and the relative viability (Serdemetan + Phenformin; first compound 1.265 µM) was 0.298. It also gave a relative viability (Serdemetan + Phenformin; first compound 4 µM) of 0.37, a relative viability (Serdemetan + Alpelisib; first compound 0.04 µM) of 0.936 and a relative viability (Serdemetan + Alpelisib; first compound 0.1265 µM) of 1.01. For the same cell line, the relative viability (Serdemetan + Alpelisib; first compound 0.4 µM) was 0.896, the relative viability (Serdemetan + Alpelisib; first compound 1.265 µM) was 0.807 and the relative viability (Serdemetan + Alpelisib; first compound 4 µM) was 0.802. The relative viability (Serdemetan + Tozasertib; first compound 0.04 µM) was 0.375, the relative viability (Serdemetan + Tozasertib; first compound 0.1265 µM) was 0.399 and the relative viability (Serdemetan + Tozasertib; first compound 0.4 µM) was 0.383. For the same cell line, the relative viability (Serdemetan + Tozasertib; first compound 1.265 µM) was 0.331 and the relative viability (Serdemetan + Tozasertib; first compound 4 µM) was 0.285.

NCI-H1651 was tested, and the relative viability (Serdemetan + Palbociclib; first compound 0.04 µM) was 0.51, the relative viability (Serdemetan + Palbociclib; first compound 0.1265 µM) was 0.499 and the relative viability (Serdemetan + Palbociclib; first compound 0.4 µM) was 0.523. For the same cell line, the relative viability (Serdemetan + Palbociclib; first compound 1.265 µM) was 0.358, the relative viability (Serdemetan + Palbociclib; first compound 4 µM) was 0.29 and the relative viability (Serdemetan + Phenformin; first compound 0.04 µM) was 0.283. The relative viability (Serdemetan + Phenformin; first compound 0.1265 µM) was 0.319, the relative viability (Serdemetan + Phenformin; first compound 0.4 µM) was 0.224 and the relative viability (Serdemetan + Phenformin; first compound 1.265 µM) was 0.205. It also gave a relative viability (Serdemetan + Phenformin; first compound 4 µM) of 0.213, a relative viability (Serdemetan + Alpelisib; first compound 0.04 µM) of 0.889 and a relative viability (Serdemetan + Alpelisib; first compound 0.1265 µM) of 0.78. For the same cell line, the relative viability (Serdemetan + Alpelisib; first compound 0.4 µM) was 0.65, the relative viability (Serdemetan + Alpelisib; first compound 1.265 µM) was 0.371 and the relative viability (Serdemetan + Alpelisib; first compound 4 µM) was 0.213. For the same cell line, the relative viability (Serdemetan + Tozasertib; first compound 0.04 µM) was 0.696, the relative viability (Serdemetan + Tozasertib; first compound 0.1265 µM) was 0.613 and the relative viability (Serdemetan + Tozasertib; first compound 0.4 µM) was 0.338. It also gave a relative viability (Serdemetan + Tozasertib; first compound 1.265 µM) of 0.343 and a relative viability (Serdemetan + Tozasertib; first compound 4 µM) of 0.292.

NCI-H1666 gave a relative viability (Serdemetan + Palbociclib; first compound 0.04 µM) of 0.645, a relative viability (Serdemetan + Palbociclib; first compound 0.1265 µM) of 0.655 and a relative viability (Serdemetan + Palbociclib; first compound 0.4 µM) of 0.63. For the same cell line, the relative viability (Serdemetan + Palbociclib; first compound 4 µM) was 0.66, the relative viability (Serdemetan + Phenformin; first compound 0.04 µM) was 0.55 and the relative viability (Serdemetan + Phenformin; first compound 0.1265 µM) was 0.557. For the same cell line, the relative viability (Serdemetan + Phenformin; first compound 0.4 µM) was 0.535, the relative viability (Serdemetan + Phenformin; first compound 1.265 µM) was 0.529 and the relative viability (Serdemetan + Phenformin; first compound 4 µM) was 0.412. For the same cell line, the relative viability (Serdemetan + Alpelisib; first compound 0.04 µM) was 1.22, the relative viability (Serdemetan + Alpelisib; first compound 0.1265 µM) was 1 and the relative viability (Serdemetan + Alpelisib; first compound 0.4 µM) was 0.891. It also gave a relative viability (Serdemetan + Alpelisib; first compound 1.265 µM) of 0.794, a relative viability (Serdemetan + Alpelisib; first compound 4 µM) of 0.807 and a relative viability (Serdemetan + Tozasertib; first compound 0.04 µM) of 0.569. The relative viability (Serdemetan + Tozasertib; first compound 0.1265 µM) was 0.588, the relative viability (Serdemetan + Tozasertib; first compound 0.4 µM) was 0.588 and the relative viability (Serdemetan + Tozasertib; first compound 1.265 µM) was 0.553. It also gave a relative viability (Serdemetan + Tozasertib; first compound 4 µM) of 0.547.

Cell Line NCI-H1734 has a relative viability (Serdemetan + Palbociclib; first compound 0.04 µM) of 0.296, a relative viability (Serdemetan + Palbociclib; first compound 0.1265 µM) of 0.23 and a relative viability (Serdemetan + Palbociclib; first compound 0.4 µM) of 0.229. For the same cell line, the relative viability (Serdemetan + Palbociclib; first compound 1.265 µM) was 0.166, the relative viability (Serdemetan + Palbociclib; first compound 4 µM) was 0.212 and the relative viability (Serdemetan + Phenformin; first compound 0.04 µM) was 0.303. The relative viability (Serdemetan + Phenformin; first compound 0.1265 µM) was 0.318, the relative viability (Serdemetan + Phenformin; first compound 0.4 µM) was 0.338 and the relative viability (Serdemetan + Phenformin; first compound 1.265 µM) was 0.156. It also gave a relative viability (Serdemetan + Phenformin; first compound 4 µM) of 0.181, a relative viability (Serdemetan + Alpelisib; first compound 0.04 µM) of 0.61 and a relative viability (Serdemetan + Alpelisib; first compound 0.4 µM) of 0.259. The relative viability (Serdemetan + Alpelisib; first compound 1.265 µM) was 0.122, the relative viability (Serdemetan + Alpelisib; first compound 4 µM) was 0.178 and the relative viability (Serdemetan + Tozasertib; first compound 0.04 µM) was 0.29. It also gave a relative viability (Serdemetan + Tozasertib; first compound 0.1265 µM) of 0.235, a relative viability (Serdemetan + Tozasertib; first compound 0.4 µM) of 0.209 and a relative viability (Serdemetan + Tozasertib; first compound 1.265 µM) of 0.142. For the same cell line, the relative viability (Serdemetan + Tozasertib; first compound 4 µM) was 0.134.

In the case of NCI-H1755, the relative viability (Serdemetan + Palbociclib; first compound 0.04 µM) is reported as 0.45, the relative viability (Serdemetan + Palbociclib; first compound 0.1265 µM) is reported as 0.42 and the relative viability (Serdemetan + Palbociclib; first compound 0.4 µM) is reported as 0.445. The relative viability (Serdemetan + Palbociclib; first compound 1.265 µM) was 0.344, the relative viability (Serdemetan + Palbociclib; first compound 4 µM) was 0.39 and the relative viability (Serdemetan + Phenformin; first compound 0.04 µM) was 0.625. The relative viability (Serdemetan + Phenformin; first compound 0.1265 µM) was 0.623, the relative viability (Serdemetan + Phenformin; first compound 0.4 µM) was 0.564 and the relative viability (Serdemetan + Phenformin; first compound 1.265 µM) was 0.469. The relative viability (Serdemetan + Phenformin; first compound 4 µM) was 0.52, the relative viability (Serdemetan + Alpelisib; first compound 0.04 µM) was 0.893 and the relative viability (Serdemetan + Alpelisib; first compound 0.1265 µM) was 0.898. It also gave a relative viability (Serdemetan + Alpelisib; first compound 0.4 µM) of 0.815, a relative viability (Serdemetan + Alpelisib; first compound 1.265 µM) of 0.499 and a relative viability (Serdemetan + Alpelisib; first compound 4 µM) of 0.456. The relative viability (Serdemetan + Tozasertib; first compound 0.04 µM) was 0.568, the relative viability (Serdemetan + Tozasertib; first compound 0.1265 µM) was 0.625 and the relative viability (Serdemetan + Tozasertib; first compound 0.4 µM) was 0.55. The relative viability (Serdemetan + Tozasertib; first compound 1.265 µM) was 0.435 and the relative viability (Serdemetan + Tozasertib; first compound 4 µM) was 0.354.

NCI-H1793 gave a relative viability (Serdemetan + Palbociclib; first compound 0.04 µM) of 0.355, a relative viability (Serdemetan + Palbociclib; first compound 0.1265 µM) of 0.325 and a relative viability (Serdemetan + Palbociclib; first compound 0.4 µM) of 0.308. For the same cell line, the relative viability (Serdemetan + Palbociclib; first compound 1.265 µM) was 0.242, the relative viability (Serdemetan + Palbociclib; first compound 4 µM) was 0.271 and the relative viability (Serdemetan + Phenformin; first compound 0.04 µM) was 0.378. For the same cell line, the relative viability (Serdemetan + Phenformin; first compound 0.1265 µM) was 0.293, the relative viability (Serdemetan + Phenformin; first compound 0.4 µM) was 0.247 and the relative viability (Serdemetan + Phenformin; first compound 1.265 µM) was 0.236. It also gave a relative viability (Serdemetan + Phenformin; first compound 4 µM) of 0.26, a relative viability (Serdemetan + Alpelisib; first compound 0.04 µM) of 0.704 and a relative viability (Serdemetan + Alpelisib; first compound 0.1265 µM) of 0.738. For the same cell line, the relative viability (Serdemetan + Alpelisib; first compound 0.4 µM) was 0.754, the relative viability (Serdemetan + Alpelisib; first compound 1.265 µM) was 0.53 and the relative viability (Serdemetan + Alpelisib; first compound 4 µM) was 0.347. The relative viability (Serdemetan + Tozasertib; first compound 0.04 µM) was 0.332, the relative viability (Serdemetan + Tozasertib; first compound 0.1265 µM) was 0.298 and the relative viability (Serdemetan + Tozasertib; first compound 0.4 µM) was 0.268. The relative viability (Serdemetan + Tozasertib; first compound 1.265 µM) was 0.255 and the relative viability (Serdemetan + Tozasertib; first compound 4 µM) was 0.186.
